# According to ChEMBL document CHEMBL3588753, “Recent progress in the drug development of coumarin derivatives as potent antituberculosis agents” (2015):
# Experiments:
# Format in all cases: functional
# [1] = tested on: Mycobacterium tuberculosis; assay: Antimycobacterial activity against Mycobacterium tuberculosis H37Rv assessed as growth inhibition by Alamar Blue staining-based broth microdilution assay; set-up: inhibition (INH): concentration or dose not given beside the values; settings: for MIC: Mycobacterium tuberculosis, H37Rv
# [2] = tested on: Mycobacterium tuberculosis; assay: Antimycobacterial activity against Mycobacterium tuberculosis H37Rv assessed as growth inhibition at 6.25 ug/ml by Alamar Blue staining-based broth microdilution assay
# [3] = tested on: Mycobacterium tuberculosis; assay: Antimycobacterial activity against Mycobacterium tuberculosis H37Rv assessed as growth inhibition at 128 ug/ml by Alamar Blue staining-based broth microdilution assay
# [4] = tested on: Mycobacterium tuberculosis; assay: Antimycobacterial activity against Mycobacterium tuberculosis H37Rv assessed as growth inhibition at 128 ug/ml by low-oxygen recovery assay
# [5] = tested on: Mycolicibacterium smegmatis; assay: Antimicrobial activity against Mycobacterium smegmatis
# [6] = tested on: Mycolicibacterium fortuitum; assay: Antimycobacterial activity against Mycobacterium fortuitum
# [7] = tested on: Mycobacterium tuberculosis; assay: Ratio of RIF IC50 to compound IC50 Mycobacterium tuberculosis H37Rv assessed as growth inhibition
# [8] = tested on: Mycobacterium tuberculosis; assay: Ratio of CPFX IC50 to compound IC50 Mycobacterium tuberculosis H37Rv assessed as growth inhibition
# [9] = tested on: Mycobacterium tuberculosis; assay: Ratio of 8-OCH3 IC50 to compound IC50 Mycobacterium tuberculosis H37Rv assessed as growth inhibition
# [10] = tested on: Mycobacterium tuberculosis; assay: Ratio of GTFX IC50 to compound IC50 Mycobacterium tuberculosis H37Rv assessed as growth inhibition
# [11] = tested on: Mycobacterium tuberculosis; assay: Ratio of MXFX IC50 to compound IC50 Mycobacterium tuberculosis H37Rv assessed as growth inhibition
# [12] = tested on: Mycolicibacterium phlei; assay: Antimycobacterial activity against Mycobacterium phlei
compound,measurement,setting,value
N#Cc1c(/C=C/c2cccc(-c3ccccc3)c2)c2cc(Cl)ccc2oc1=O,inhibition (INH),[1],72%
O=C(CSc1nnc(-c2cc3ccccc3oc2=O)o1)Nc1ccc(I)cc1,inhibition (INH),[1],99%
same,MIC,[1],12.5 mg/L
O=c1cc(Nc2ccc3ccccc3c2)c2ccccc2o1,inhibition at 6.25 µg/mL,[2],81%
COc1ccc(-c2cc(-c3ccc(Nc4cc(=O)oc5ccccc45)cc3)nc(N)c2C#N)cc1OC,inhibition (INH),[1],99%
same,MIC,[1],12.5 mg/L
O=c1oc2ccccc2c(O)c1C1=Nc2ccccc2SC(c2c[nH]c3ccccc23)C1 (centres undefined),inhibition at 6.25 µg/mL,[2],80%
COc1ccc(C2NC(=O)Nc3c2c(=O)oc2ccc(C)cc32)cc1 (centres undefined),inhibition at 128 µg/mL,[3],58%
same,inhibition at 128 µg/mL,[4],62%
COc1cccc2cc(-c3ccc(C(=O)c4cc(C)ccc4O)cn3)c(=O)oc12,MIC,[1],62.5 mg/L
C=CC(C)(C)c1c2c(c(O)c3ccc(=O)oc13)C(=O)CC(C)(C)O2,MIC,[1],200 mg/L
O=c1oc2ccccc2c(O)c1C1=Nc2ccccc2SC(c2ccccc2O)C1 (centres undefined),inhibition at 6.25 µg/mL,[2],94%
O=C1Nc2c(c(=O)oc3ccccc23)C(c2ccccc2O)N1 (centres undefined),inhibition at 128 µg/mL,[3],45%
same,inhibition at 128 µg/mL,[4],37%
Cc1ccc(O)c(C(=O)c2ccc(-c3cc4cc(Br)ccc4oc3=O)nc2)c1,MIC,[1],100 mg/L
CC(C)=CCC/C(C)=C/CC/C(C)=C/Cc1c(O)c2ccccc2oc1=O,MIC,[5],0.5 mg/L
same,MIC,[6],2 mg/L
O=C(N/N=C/c1cccc(O)c1)c1cc2ccccc2oc1=O,MIC,[1],50 mg/L
COc1ccc2ccc(=O)oc2c1C(CO)=C(C)C,MIC,[1],50 mg/L
CN(C)c1ccc(/C=C/c2c(C#N)c(=O)oc3ccc(Cl)cc23)cc1,inhibition (INH),[1],79%
O=C(CN1CCN(c2cc3c(cc2F)c(=O)c(C(=O)O)cn3C2CC2)CC1)c1cc2ccc(O)cc2oc1=O,MIC,[5],3.12 mg/L
same,MIC,[1],0.5 mg/L
COc1ccc2cc(C(=O)CN3CCN(c4c(F)cc5c(=O)c(C(=O)O)cn(C6CC6)c5c4OC)CC3)c(=O)oc2c1,MIC,[5],6.25 mg/L
same,Ratio IC50,[7],2
same,MIC,[1],0.25 mg/L
same,Ratio IC50,[8],2
same,Ratio IC50,[9],2
same,Ratio IC50,[10],2
same,Ratio IC50,[11],2
C/C(=C\CC/C(C)=C/CC/C(C)=C/Cc1c(O)c2ccccc2oc1=O)CO,MIC,[5],16 mg/L
same,MIC,[12],16 mg/L
C=CC(C)(C)c1c(O)c2c(c3ccc(=O)oc13)OC(C)(C)C=C2,MIC,[1],100 mg/L
O=C(Cc1cc(=O)oc2cc(O)ccc12)N/N=C/c1cccc([N+](=O)[O-])c1,inhibition (INH),[1],93%
O=C(N/N=C/c1ccc([N+](=O)[O-])cc1)c1cc2ccccc2oc1=O,MIC,[1],100 mg/L
Cc1ccc(C)c2c(CC(=O)N/N=C/c3ccccc3)cc(=O)oc12,inhibition (INH),[1],70%
C/C(=C\CC/C(C)=C/Cc1c(O)c2ccccc2oc1=O)CC/C=C(\C)COC(=O)c1ccccc1,MIC,[5],2 mg/L
same,MIC,[12],2 mg/L
O=C(c1ccncc1)n1nc(-c2ccc(F)cc2)cc1-c1cc2ccccc2oc1=O,inhibition (INH),[1],80.09%
same,MIC,[1],0.625 mg/L
COc1ccc(C2NC(=O)Nc3c2c(=O)oc2ccc(C)cc32)cc1OC (centres undefined),inhibition at 128 µg/mL,[3],55%
same,inhibition at 128 µg/mL,[4],35%
Cc1ccc(O)c(C(=O)c2ccc(-c3cc4ccccc4oc3=O)nc2)c1,MIC,[1],100 mg/L
N#Cc1c(/C=C/c2c3ccccc3cc3ccccc23)c2cc(Cl)ccc2oc1=O,inhibition (INH),[1],81%
Cc1cc(=O)oc2cc(OCc3cn(Cc4cc(=O)oc5cc(Cl)ccc45)nn3)ccc12,MIC,[1],6.25 mg/L
O=c1oc2ccccc2c(O)c1C1=Nc2ccccc2SC(c2ccc([N+](=O)[O-])cc2)C1 (centres undefined),inhibition at 6.25 µg/mL,[2],93%
Cc1ccc(C)c2c(CC(=O)N/N=C/c3ccccc3[N+](=O)[O-])cc(=O)oc12,inhibition (INH),[1],65%
CC(=O)OC/C(C)=C/CC/C(C)=C/CC/C(C)=C/Cc1c(O)c2ccccc2oc1=O,MIC,[5],8 mg/L
same,MIC,[12],8 mg/L
COc1cc2oc(=O)ccc2cc1[C@H]1OC(=O)[C@]2(C)O[C@H]12,MIC,[1],50 mg/L
O=c1ccc2c(O)c3ccoc3cc2o1 [BERGAPTOL],MIC,[1],100 mg/L
O=C(CSc1nnc(-c2cc3ccccc3oc2=O)o1)Nc1nc2ccc(Br)cc2s1,inhibition (INH),[1],99%
same,MIC,[1],12.5 mg/L
COc1cc(/C=C/c2c(C#N)c(=O)oc3ccc(Cl)cc23)cc(OC)c1OC,inhibition (INH),[1],87%
COc1cc2ccc(=O)oc2cc1O [SCOPOLETIN],MIC,[1],42.1 mg/L
C=CC(C)(C)c1c2c(c(OC)c3ccc(=O)oc13)C=CC(C)(C)O2 [DENTATIN],MIC,[1],50 mg/L
Cc1cc(=O)oc2cc(OCc3cn(Cc4cc(=O)oc5ccc(Cl)cc45)nn3)ccc12,MIC,[1],6.25 mg/L
Cc1cc2oc(=O)cc(Nc3ccc4ccccc4c3)c2cc1Cl,inhibition at 6.25 µg/mL,[2],100%
Cc1cc(=O)oc2cc(OCc3cn(Cc4cc(=O)oc5ccc6ccccc6c45)nn3)ccc12,MIC,[1],6.25 mg/L
COc1c2c(cc3oc(=O)c(-c4ccc(O)cc4)c(O)c13)OC(C)(C)C=C2,MIC,[5],18 mg/L
